# Assay results from patent publication US10676457B2, “Cyclopropylamines as LSD1 inhibitors” (Incyte Corporation, priority 2014, dated 2020).
# Target: LSD-1 enzyme (Homo sapiens (Human), UniProt O60341)
# Test: LANCE LSD1/KDM1A demethylase assay (LSD1 histone demethylase biochemical assay)
# Details: 1 nM LSD-1 enzyme, 1 hour preincubation at 25° C., 0.4 μM Biotin-labeled Histone H3 peptide substrate
# Experimental: LANCE LSD1/KDM1A demethylase assay—10 μL of 1 nM LSD-1 enzyme (ENZO BML-SE544-0050) in the assay buffer (50 mM Tris, pH 7.5, 0.01% Tween-20, 25 mM NaCl, 5 mM DTT) were preincubated for 1 hour at 25° C. with 0.8 μL compound/DMSO dotted in black 384 well polystyrene plates. […] After stopping the reactions plates were incubated for 30 minutes and read on a PHERAstar FS plate reader (BMG Labtech).
compound,measurement,value
"CS(=O)(=O)N1CC(CCO)(N2CCC(N[C@@H]3C[C@H]3c3ccccc3)CC2)C1 [Example 93, 2-[1-(methylsulfonyl)-3-(4-{[(1R,2S)-2-phenylcyclopropyl]amino}piperidin-1-yl)azetidin-3-yl]ethanol]",IC50,< 100 nM
